System: RS4; 11 cells
Assay: Cell proliferation assay (MTS), RS4; 11 cells
Assay type: cell-based
Details: Homo sapiens, RS4-11, 72 h, RS4; 11 (ATCC CRL-1873) cell proliferation, 30000 cells/well, 72 h, MTS; mechanism-based readout of Bcl-2 inhibition; read-out: RS4; 11 IC50
Excerpt: MTS testing kit was purchased from Promega. The RPMI-1640, Fetal bovine serum and Penicillin-Streptomycin were purchased from Gibco. Dimethyl sulfoxide (DMSO) was purchased from Sigma.
To investigate whether a compound is able to inhibit the activity of Bcl-2 in cells, a mechanism-based assay using DOHH2 (DSMZ No.® ACC 47) and RS4; 11 (ATCC® CRL-1873™) cell was developed. In this assay, inhibition of Bcl-2 was detected by the inhibition of DOHH2 and RS4; 11 cells proliferation. DOHH2 and RS4; 11 cells were cultured in culture flasks to 40-80% confluence in RPMI-1640 plus 10% fetal bovine serum. Cells were collected and plated onto 96-well plates at desired cell density (DOHH2: 5000 cells/well; RS4; 11: 30000 cells/well). Plates were incubated overnight at 37° C., with 5% CO2 to adhere. Compounds were added to the plates, and the final compound concentrations were 10000, 3333, 1111, […], 124, 41, 14, 4.6 and 1.5 nM. Plates plated with DOHH2 or RS4; 11 cells were placed at 37° C., with 5% CO2 for 120 h (DOHH2) or 72 h (RS4; 11) respectively. 20 μl MTS/100 μl medium mixture solution were added to each well and incubate the plates for exactly 2 hours. The reaction was stopped by adding 25 μl 10% SDS per well. Measure absorbance at 490 nm and 650 nm (reference wavelength). ICso was calculated using GraphPad Prism 5.0.

SMILES | IC50
CC(=O)N=S1(=O)CCC(CNc2ccc(S(=O)(=O)NC(=O)c3ccc(N4CCN(CC5=C(c6ccc(Cl)cc6)CC(C)(C)CC5)CC4)cc3Oc3cnc4[nH]ccc4c3)cc2[N+](=O)[O-])CC1 (stereo not drawn) [Example 31, 2-((1H-pyrrolo[2,3-b]pyridin-5-yl)oxy)-N-((4-(((1-(acetylimino)-1-oxidohexahydro-1λ^6-thiopyran-4-yl)methyl)amino)-3-nitrophenyl)sulfonyl)-4-(4-((4′-chloro-5,5-dimethyl-3,4,5,6-tetrahydro-[1,1′-biphenyl]-2-yl)methyl)piperazin-1-yl)benzamide] | 135 nM
CC(CNc1ccc(S(=O)(=O)NC(=O)c2ccc(N3CCN(CC4=C(c5ccc(Cl)cc5)CC(C)(C)CC4)CC3)cc2Oc2cnc3[nH]ccc3c2)cc1[N+](=O)[O-])N1CCP(C)(=O)CC1 (stereo not drawn) [Example 10, 2-((1H-pyrrolo[2,3-b]pyridin-5-yl)oxy)-4-(4-((4′-chloro-5,5-dimethyl-3,4,5,6-tetrahydro-[1,1′-biphenyl]-2-yl)methyl)piperazin-1-yl)-N-((4-((2-(4-methyl-4-oxido-1,4-azaphosphinan-1-yl)propyl)amino)-3-nitrophenyl)sulfonyl)benzamide] | 133 nM
CC1(C)CCC(CN2CCN(c3ccc(C(=O)NS(=O)(=O)c4ccc(NCC5CCS(=N)(=O)CC5)c([N+](=O)[O-])c4)c(Oc4cnc5[nH]ccc5c4)c3)CC2)=C(c2ccc(Cl)cc2)C1 (stereo not drawn) [Example 28, 2-((1H-pyrrolo[2,3-b]pyridin-5-yl)oxy)-4-(4-((4′-chloro-5,5-dimethyl-3,4,5,6-tetrahydro-[1,1′-biphenyl]-2-yl)methyl)piperazin-1-yl)-N-((4-(((1-imino-1-oxidohexahydro-1λ^6-thiopyran-4-yl)methyl)amino)-3-nitrophenyl)sulfonyl) benzamide] | 122 nM
CC(Nc1ccc(S(=O)(=O)NC(=O)c2ccc(N3CCN(CC4=C(c5ccc(Cl)cc5)CC(C)(C)CC4)CC3)cc2Oc2cnc3[nH]ccc3c2)cc1[N+](=O)[O-])C1CCS(=O)(=NC2CC2)CC1 (stereo not drawn) [Example 62, 2-((1H-pyrrolo[2,3-b]pyridin-5-yl)oxy)-4-(4-((4′-chloro-5,5-dimethyl-3,4,5,6-tetrahydro-[1,1′-biphenyl]-2-yl)methyl)piperazin-1-yl)-N-((4-((1-(1-(cyclopropylimino)-1-oxidohexahydro-1λ^6-thiopyran-4-yl)ethyl)amino)-3-nitrophenyl)sulfonyl) benzamide] | 160 nM
CN=S1(=O)CCC(CNc2ccc(S(=O)(=O)NC(=O)c3ccc(N4CCN(CC5=C(c6ccc(Cl)cc6)CC(C)(C)CC5)CC4)cc3Oc3cnc4[nH]ccc4c3)cc2[N+](=O)[O-])CC1 (stereo not drawn) [Example 29, 2-((1H-pyrrolo[2,3-b]pyridin-5-yl)oxy)-4-(4-((4′-chloro-5,5-dimethyl-3,4,5,6-tetrahydro-[1,1′-biphenyl]-2-yl)methyl)piperazin-1-yl)-N-((4-(((1-(methylimino)-1-oxidohexahydro-1λ^6-thiopyran-4-yl)methyl)amino)-3-nitrophenyl)sulfonyl)benzamide] | 323 nM
C[C@@H](CN1CCS(=O)(=NC#N)CC1)Nc1ccc(S(=O)(=O)NC(=O)c2ccc(N3CCN(CC4=C(c5ccc(Cl)cc5)CC(C)(C)CC4)CC3)cc2Oc2cnc3[nH]ccc3c2)cc1S(=O)(=O)C(F)(F)F [Example 48, (S)-2-((1H-pyrrolo[2,3-b]pyridin-5-yl)oxy)-4-(4-((4′-chloro-5,5-dimethyl-3,4,5,6-tetrahydro-[1,1′-biphenyl]-2-yl)methyl)piperazin-1-yl)-N-((4-((1-(1-(cyanoimino)-1-oxido-1λ^6-thiomorpholino)propan-2-yl)amino)-3-((trifluoromethyl)sulfonyl)phenyl)sulfonyl)benzamide] | 173 nM
CC1(C)CCC(CN2CCN(c3ccc(C(=O)NS(=O)(=O)c4ccc(NCC(N5CCP(C)(=O)CC5)C(F)(F)F)c([N+](=O)[O-])c4)c(Oc4cnc5[nH]ccc5c4)c3)CC2)=C(c2ccc(Cl)cc2)C1 (stereo not drawn) [Example 14, 2-((1H-pyrrolo[2,3-b]pyridin-5-yl)oxy)-4-(4-((4′-chloro-5,5-dimethyl-3,4,5,6-tetrahydro-[1,1′-biphenyl]-2-yl)methyl)piperazin-1-yl)-N-((3-nitro-4-((3,3,3-trifluoro-2-(4-methyl-4-oxido-1,4-azaphosphinan-1-yl)propyl)amino)phenyl)sulfonyl) benzamide] | 520 nM

Continued, values first:

IC50 | SMILES
165 nM | CC1(C)CCC(CN2CCN(c3ccc(C(=O)NS(=O)(=O)c4ccc(NCCN5CCS(=O)(=NC(=O)C6CC6)CC5)c([N+](=O)[O-])c4)c(Oc4cnc5[nH]ccc5c4)c3)CC2)=C(c2ccc(Cl)cc2)C1 [Example 69, 2-((1H-pyrrolo[2,3-b]pyridin-5-yl)oxy)-4-(4-((4′-chloro-5,5-dimethyl-3,4,5,6-tetrahydro-[1,1′-biphenyl]-2-yl)methyl)piperazin-1-yl)-N-((4-((2-(1-((cyclopropanecarbonyl)imino)-1-oxido-1λ^6-thiomorpholino)ethyl)amino)-3-nitrophenyl)sulfonyl) benzamide]
438 nM | CC(Nc1ccc(S(=O)(=O)NC(=O)c2ccc(N3CCN(CC4=C(c5ccc(Cl)cc5)CC(C)(C)CC4)CC3)cc2Oc2cnc3[nH]ccc3c2)cc1[N+](=O)[O-])C1CCS(=O)(=NC#N)CC1 (stereo not drawn) [Example 32, 2-((1H-pyrrolo[2,3-b]pyridin-5-yl)oxy)-4-(4-((4′-chloro-5,5-dimethyl-3,4,5,6-tetrahydro-[1,1′-biphenyl]-2-yl)methyl)piperazin-1-yl)-N-((4-((1-(1-(cyanoimino)-1-oxidohexahydro-1λ^6-thiopyran-4-yl)ethyl)amino)-3-nitrophenyl)sulfonyl)benzamide]
258 nM | CC1(C)CCC(CN2CCN(c3ccc(C(=O)NS(=O)(=O)c4ccc(NCCN5CCS(=O)(=NS(C)(=O)=O)CC5)c([N+](=O)[O-])c4)c(Oc4cnc5[nH]ccc5c4)c3)CC2)=C(c2ccc(Cl)cc2)C1 [Example 71, 2-((1H-pyrrolo[2,3-b]pyridin-5-yl)oxy)-4-(4-((4′-chloro-5,5-dimethyl-3,4,5,6-tetrahydro-[1,1′-biphenyl]-2-yl)methyl)piperazin-1-yl)-N-((4-((2-(1-((methylsulfonyl)imino)-1-oxido-1λ^6-thiomorpholino)ethyl)amino)-3-nitrophenyl)sulfonyl)benzamide]
232 nM | CC1(C)CCC(CN2CCN(c3ccc(C(=O)NS(=O)(=O)c4ccc(NCCN5CCS(=O)(=NC#N)CC5)c([N+](=O)[O-])c4)c(Oc4cnc5[nH]ccc5c4)c3)CC2)=C(c2ccc(Cl)cc2)C1 [Example 36, 2-((1H-pyrrolo[2,3-b]pyridin-5-yl)oxy)-4-(4-((4′-chloro-5,5-dimethyl-3,4,5,6-tetrahydro-[1,1′-biphenyl]-2-yl)methyl)piperazin-1-yl)-N-((4-((2-(1-(cyanoimino)-1-oxido-1λ^6-thiomorpholino)ethyl)amino)-3-nitrophenyl)sulfonyl) benzamide]
155 nM | CC1(C)CCC(CN2CCN(c3ccc(C(=O)NS(=O)(=O)c4ccc(NCCN5CCS(=N)(=O)CC5)c([N+](=O)[O-])c4)c(Oc4cnc5[nH]ccc5c4)c3)CC2)=C(c2ccc(Cl)cc2)C1 [Example 46, 2-((1H-pyrrolo[2,3-b]pyridin-5-yl)oxy)-4-(4-((4′-chloro-5,5-dimethyl-3,4,5,6-tetrahydro-[1,1′-biphenyl]-2-yl)methyl)piperazin-1-yl)-N-((4-((2-(1-imino-1-oxido-1λ^6-thiomorpholino)ethyl)amino)-3-nitrophenyl)sulfonyl) benzamide]

Reference: patent US11053239B2, “Compounds as BLC-2-selective apoptosis-inducing agents” (Fochon Pharmaceuticals, Ltd., priority 2017, dated 2021)
